Measurements from patent publication US20250212902A1, “METHOD AND COMPOSITION FOR IMPROVEMENT OF AGRICULTURAL PRODUCE” (UPL CORPORATION LIMITED, priority 2022, published 2025).

Columns and labels:
[1] = tested on: powdery mildew (Uncinula necator); assay: Control of powdery mildew in grape; assay type: in vivo; conditions: Example 7 Trial 2, 10 applications, 3 day interval
Procedure: (§1) 10 applications […] were performed with an interval of 3 days with the 1st application being at inflorescence stage (BBCH 53). Severity of disease was evaluated in at least 20 leaves/plot, prior evaluation was performed before the first application, at 3 days after each application and at 7 and 10 days after the last application. Phytotoxicity (0 to 100%) was evaluated before each spray and at 3 days after each application. Post-harvest bunch weight was evaluated at 19 days after harvest. Control of powdery mildew was recorded as % control. Yield was evaluated as Kg/ha. Post-harvest bunch weight was recorded as g/bunch. […] 10 applications […] were performed with an interval of 3 days with the 1st application being at inflorescence stage (BBCH 53). Severity of disease was evaluated in at least 20 leaves/plot, prior evaluation was performed before the first application, at 3 days after each application and at 7 and 10 days after the last application. Phytotoxicity (0 to 100%) was evaluated before each spray and at 3 days after each application. Post-harvest bunch weight was evaluated at 19 days after harvest. Control of powdery mildew was recorded as % control. Post-harvest bunch weight was recorded as g/bunch.

grape = assay: Post-harvest bunch weight in grape (Example 7); assay type: in vivo; conditions: 19 days after harvest, Example 7 Trial 2
Procedure: as §1

O=C([O-])O.[K+] [Potassium bicarbonate, potassium bicarbonate]
% Control of Uncinula necator [1]: 67.7% | Post-harvest bunch weight (g/bunch) (grape): 420.3 g/bunch
